Assay results reported in ChEMBL document CHEMBL3297661, “1-Substituted-5-[(3,5-dinitrobenzyl)sulfanyl]-1H-tetrazoles and their isosteric analogs: A new class of selective antitubercular agents active against drug-susceptible and multidrug-resistant mycobacteria” (Eur J Med Chem, 2014).
In brackets after ≈: the same amount, converted by molar mass.

What follows are molecules tested on Mycobacterium tuberculosis (assay: Antimycobacterial activity against Mycobacterium tuberculosis CNCTC My 331/88 after 14 days by micromethod). Settings: CNCTC My 331/88, 336 h.
Format: functional

In order of rising MIC:
1. O=[N+]([O-])c1cc(C[Se]c2nnnn2-c2ccc(Br)cc2)cc([N+](=O)[O-])c1  2 µM (≈ 0.968 µg/mL)
2. O=[N+]([O-])c1cc(COc2nnnn2-c2ccccc2)cc([N+](=O)[O-])c1  2 µM (≈ 0.685 µg/mL)
3. Cn1nnnc1SCc1cc([N+](=O)[O-])cc([N+](=O)[O-])c1  4 µM (≈ 1.19 µg/mL)
4. N#CSCc1cc([N+](=O)[O-])cc([N+](=O)[O-])c1  4 µM (≈ 0.957 µg/mL)
5. CC(=O)SCc1cc([N+](=O)[O-])cc([N+](=O)[O-])c1  8 µM (≈ 2.05 µg/mL)
6. COc1cc(-n2nnnc2SCc2cc([N+](=O)[O-])cc([N+](=O)[O-])c2)cc(OC)c1OC  16 µM (≈ 7.17 µg/mL)

The molecules below were run on Mycobacterium tuberculosis (assay: Antimycobacterial activity against Mycobacterium tuberculosis CNCTC My 331/88 after 21 days by micromethod). Settings: CNCTC My 331/88, 504 h.
Format: functional

In order of rising MIC:
1. O=[N+]([O-])c1cc(C[Se]c2nnnn2-c2ccc(Br)cc2)cc([N+](=O)[O-])c1  2 µM (≈ 0.968 µg/mL)
2. O=[N+]([O-])c1cc(COc2nnnn2-c2ccccc2)cc([N+](=O)[O-])c1  4 µM (≈ 1.37 µg/mL)
3. N#CSCc1cc([N+](=O)[O-])cc([N+](=O)[O-])c1  4 µM (≈ 0.957 µg/mL)
4. Cn1nnnc1SCc1cc([N+](=O)[O-])cc([N+](=O)[O-])c1  8 µM (≈ 2.37 µg/mL)
5. CC(=O)SCc1cc([N+](=O)[O-])cc([N+](=O)[O-])c1  16 µM (≈ 4.1 µg/mL)
6. COc1cc(-n2nnnc2SCc2cc([N+](=O)[O-])cc([N+](=O)[O-])c2)cc(OC)c1OC  16 µM (≈ 7.17 µg/mL)

Each molecule was assayed on Mycobacterium avium (assay: Antimycobacterial activity against Mycobacterium avium CNCTC My 330/88 after 14 days by micromethod). Settings: CNCTC My 330/88, 336 h.
Format: functional

In order of falling MIC:
1. Cn1nnnc1SCc1cc([N+](=O)[O-])cc([N+](=O)[O-])c1  500 µM (≈ 148 µg/mL)
2. COc1cc(-n2nnnc2SCc2cc([N+](=O)[O-])cc([N+](=O)[O-])c2)cc(OC)c1OC  250 µM (≈ 112 µg/mL)
3. O=[N+]([O-])c1cc(C[Se]c2nnnn2-c2ccc(Br)cc2)cc([N+](=O)[O-])c1  125 µM (≈ 60.5 µg/mL)
4. O=[N+]([O-])c1cc(COc2nnnn2-c2ccccc2)cc([N+](=O)[O-])c1  125 µM (≈ 42.8 µg/mL)
5. CC(=O)SCc1cc([N+](=O)[O-])cc([N+](=O)[O-])c1  62 µM (≈ 15.9 µg/mL)
6. N#CSCc1cc([N+](=O)[O-])cc([N+](=O)[O-])c1  32 µM (≈ 7.65 µg/mL)

What follows are molecules tested on Mycobacterium avium (assay: Antimycobacterial activity against Mycobacterium avium CNCTC My 330/88 after 21 days by micromethod). Settings: CNCTC My 330/88, 504 h.
Format: functional

In order of falling MIC:
1. Cn1nnnc1SCc1cc([N+](=O)[O-])cc([N+](=O)[O-])c1  1000 µM (≈ 296 µg/mL)
2. COc1cc(-n2nnnc2SCc2cc([N+](=O)[O-])cc([N+](=O)[O-])c2)cc(OC)c1OC  250 µM (≈ 112 µg/mL)
3. O=[N+]([O-])c1cc(C[Se]c2nnnn2-c2ccc(Br)cc2)cc([N+](=O)[O-])c1  125 µM (≈ 60.5 µg/mL)
4. CC(=O)SCc1cc([N+](=O)[O-])cc([N+](=O)[O-])c1  125 µM (≈ 32 µg/mL)
5. O=[N+]([O-])c1cc(COc2nnnn2-c2ccccc2)cc([N+](=O)[O-])c1  125 µM (≈ 42.8 µg/mL)
6. N#CSCc1cc([N+](=O)[O-])cc([N+](=O)[O-])c1  62 µM (≈ 14.8 µg/mL)

The molecules below were run on Mycobacterium kansasii (assay: Antimycobacterial activity against Mycobacterium kansasii CNCTC My 235/80 after 7 days by micromethod). Settings: CNCTC My 235/80, 168 h.
Format: functional

In order of rising MIC:
1. O=[N+]([O-])c1cc(C[Se]c2nnnn2-c2ccc(Br)cc2)cc([N+](=O)[O-])c1  2 µM (≈ 0.968 µg/mL)
2. N#CSCc1cc([N+](=O)[O-])cc([N+](=O)[O-])c1  2 µM (≈ 0.478 µg/mL)
3. Cn1nnnc1SCc1cc([N+](=O)[O-])cc([N+](=O)[O-])c1  4 µM (≈ 1.19 µg/mL)
4. O=[N+]([O-])c1cc(COc2nnnn2-c2ccccc2)cc([N+](=O)[O-])c1  8 µM (≈ 2.74 µg/mL)
5. CC(=O)SCc1cc([N+](=O)[O-])cc([N+](=O)[O-])c1  16 µM (≈ 4.1 µg/mL)
6. COc1cc(-n2nnnc2SCc2cc([N+](=O)[O-])cc([N+](=O)[O-])c2)cc(OC)c1OC  16 µM (≈ 7.17 µg/mL)

These molecules were tested on Mycobacterium kansasii (assay: Antimycobacterial activity against Mycobacterium kansasii CNCTC My 235/80 after 14 days by micromethod). Settings: CNCTC My 235/80, 336 h.
Format: functional

In order of rising MIC:
1. O=[N+]([O-])c1cc(C[Se]c2nnnn2-c2ccc(Br)cc2)cc([N+](=O)[O-])c1  4 µM (≈ 1.94 µg/mL)
2. N#CSCc1cc([N+](=O)[O-])cc([N+](=O)[O-])c1  8 µM (≈ 1.91 µg/mL)
3. Cn1nnnc1SCc1cc([N+](=O)[O-])cc([N+](=O)[O-])c1  16 µM (≈ 4.74 µg/mL)
4. O=[N+]([O-])c1cc(COc2nnnn2-c2ccccc2)cc([N+](=O)[O-])c1  16 µM (≈ 5.48 µg/mL)
5. CC(=O)SCc1cc([N+](=O)[O-])cc([N+](=O)[O-])c1  32 µM (≈ 8.2 µg/mL)
6. COc1cc(-n2nnnc2SCc2cc([N+](=O)[O-])cc([N+](=O)[O-])c2)cc(OC)c1OC  32 µM (≈ 14.3 µg/mL)

These molecules were tested on Mycobacterium kansasii (assay: Antimycobacterial activity against Mycobacterium kansasii CNCTC My 235/80 after 21 days by micromethod). Settings: CNCTC My 235/80, 504 h.
Format: functional

In order of falling MIC:
1. CC(=O)SCc1cc([N+](=O)[O-])cc([N+](=O)[O-])c1  125 µM (≈ 32 µg/mL)
2. Cn1nnnc1SCc1cc([N+](=O)[O-])cc([N+](=O)[O-])c1  32 µM (≈ 9.48 µg/mL)
3. O=[N+]([O-])c1cc(COc2nnnn2-c2ccccc2)cc([N+](=O)[O-])c1  32 µM (≈ 11 µg/mL)
4. COc1cc(-n2nnnc2SCc2cc([N+](=O)[O-])cc([N+](=O)[O-])c2)cc(OC)c1OC  32 µM (≈ 14.3 µg/mL)
5. N#CSCc1cc([N+](=O)[O-])cc([N+](=O)[O-])c1  16 µM (≈ 3.83 µg/mL)
6. O=[N+]([O-])c1cc(C[Se]c2nnnn2-c2ccc(Br)cc2)cc([N+](=O)[O-])c1  4 µM (≈ 1.94 µg/mL)

The molecules below were run on Mycobacterium kansasii (assay: Antimycobacterial activity against Mycobacterium kansasii 6509/96 after 7 days by micromethod). Settings: 6509/96, 168 h.
Format: functional

In order of rising MIC:
1. O=[N+]([O-])c1cc(C[Se]c2nnnn2-c2ccc(Br)cc2)cc([N+](=O)[O-])c1  2 µM (≈ 0.968 µg/mL)
2. N#CSCc1cc([N+](=O)[O-])cc([N+](=O)[O-])c1  4 µM (≈ 0.957 µg/mL)
3. O=[N+]([O-])c1cc(COc2nnnn2-c2ccccc2)cc([N+](=O)[O-])c1  8 µM (≈ 2.74 µg/mL)
4. Cn1nnnc1SCc1cc([N+](=O)[O-])cc([N+](=O)[O-])c1  16 µM (≈ 4.74 µg/mL)
5. COc1cc(-n2nnnc2SCc2cc([N+](=O)[O-])cc([N+](=O)[O-])c2)cc(OC)c1OC  16 µM (≈ 7.17 µg/mL)
6. CC(=O)SCc1cc([N+](=O)[O-])cc([N+](=O)[O-])c1  62 µM (≈ 15.9 µg/mL)

These molecules were tested on Mycobacterium kansasii (assay: Antimycobacterial activity against Mycobacterium kansasii 6509/96 after 14 days by micromethod). Settings: 6509/96, 336 h.
Format: functional

In order of rising MIC:
1. O=[N+]([O-])c1cc(C[Se]c2nnnn2-c2ccc(Br)cc2)cc([N+](=O)[O-])c1  4 µM (≈ 1.94 µg/mL)
2. N#CSCc1cc([N+](=O)[O-])cc([N+](=O)[O-])c1  8 µM (≈ 1.91 µg/mL)
3. O=[N+]([O-])c1cc(COc2nnnn2-c2ccccc2)cc([N+](=O)[O-])c1  16 µM (≈ 5.48 µg/mL)
4. COc1cc(-n2nnnc2SCc2cc([N+](=O)[O-])cc([N+](=O)[O-])c2)cc(OC)c1OC  16 µM (≈ 7.17 µg/mL)
5. Cn1nnnc1SCc1cc([N+](=O)[O-])cc([N+](=O)[O-])c1  32 µM (≈ 9.48 µg/mL)
6. CC(=O)SCc1cc([N+](=O)[O-])cc([N+](=O)[O-])c1  125 µM (≈ 32 µg/mL)

These molecules were tested on Mycobacterium kansasii (assay: Antimycobacterial activity against Mycobacterium kansasii 6509/96 after 21 days by micromethod). Settings: 6509/96, 504 h.
Format: functional

In order of falling MIC:
1. CC(=O)SCc1cc([N+](=O)[O-])cc([N+](=O)[O-])c1  500 µM (≈ 128 µg/mL)
2. Cn1nnnc1SCc1cc([N+](=O)[O-])cc([N+](=O)[O-])c1  32 µM (≈ 9.48 µg/mL)
3. O=[N+]([O-])c1cc(COc2nnnn2-c2ccccc2)cc([N+](=O)[O-])c1  32 µM (≈ 11 µg/mL)
4. COc1cc(-n2nnnc2SCc2cc([N+](=O)[O-])cc([N+](=O)[O-])c2)cc(OC)c1OC  32 µM (≈ 14.3 µg/mL)
5. N#CSCc1cc([N+](=O)[O-])cc([N+](=O)[O-])c1  16 µM (≈ 3.83 µg/mL)
6. O=[N+]([O-])c1cc(C[Se]c2nnnn2-c2ccc(Br)cc2)cc([N+](=O)[O-])c1  8 µM (≈ 3.87 µg/mL)
